Assay results from US11008334B2, “Compositions and methods for treating cancer” (The Regents of the University of California, priority 2012, dated 2021).
Where two headings read alike, the source gives them in different places.

Target: T1, K-RasG12C (1-169) (Homo sapiens, UniProt P01116, G12C)
T1 construct: Un-tagged recombinant K-Ras G12C (1-169) at 4 μM in Buffer A; hexahistidine (cleaved yes); made in house; host or cells: Escherichia coli BL21 (DE)
Assay: Mass spectrometric screen for extent of covalent labeling
Format: binding
Conditions: for percent covalent labeling at 10 µM: 10 micromolar; for Labeling % (10 micM) 24h: 10 micM compound, (plate) or (single) measurement
Experimental: Un-tagged recombinant K-Ras G12C (1-169) at 4 μM in Buffer A was reacted with inhibitors at 200 μM or 10 μM (2% DMSO final). At 2, 6, and 24 hrs, 10 μL aliquots were removed and the reactions were stopped by addition of 1 μL 2% formic acid. The extent of modification was determined by mass spectrometry.

[1] = 2 h, 2 hrs, read-out: Percent reduction in activity of compound at 10 micromolar relative to control (no compound), 2 hrs
[2] = 6 h, 6 hrs, read-out: Percent reduction in activity of compound at 10 micromolar relative to control (no compound), 6 hrs
[3] = 24 h, 24 hrs, read-out: Percent reduction in activity of compound at 10 micromolar relative to control (no compound), 24 hrs

| percent covalent labeling at 10 µM [1] [%] | percent covalent labeling at 10 µM [2] [%] | percent covalent labeling at 10 µM [3] [%] | Labeling % (10 micM) 24h | Labeling % (10 micM) 24h (Table 5) | Compound |
| --- | --- | --- | --- | --- | --- |
| ≤ 5 | ≤ 5 | ≤ 5 |  |  | C=CC(=O)NC1CCN(C(=O)COc2ccc(Cl)cc2Cl)CC1 [JO-01-171] |
| ≤ 5 | ≤ 5 | ≤ 5 |  |  | C=CC(=O)N1CCN(C(=O)COc2ccc(Cl)cc2Cl)CC1 [JO-01-172] |
| ≤ 5 | ≤ 5 | 5 to 20 |  |  | C=CS(=O)(=O)NC1CCN(C(=O)CSc2ccc(Cl)cc2Cl)CC1 [JO-02-26] |
| ≤ 5 | ≤ 5 |  | ++ (plate) (5% < ++ <=20%) | ++ (plate) (5% < ++ <=20%) | C=CS(=O)(=O)NC1CCN(C(=O)COc2ccc(Cl)cc2Cl)CC1 [JO-02-31A] |
| ≤ 5 | ≤ 5 | 5 to 20 |  |  | C=CS(=O)(=O)NC1CCN(C(=O)CSc2ccc(Cl)cc2C)CC1 [JO-02-31B] |
| ≤ 5 | ≤ 5 | 20 to 40 |  |  | C=CS(=O)(=O)NC1CCN(C(=O)CSc2ccc(Cl)c3ccccc23)CC1 [JO-02-31C] |
| ≤ 5 | ≤ 5 | ≤ 5 |  |  | C=CS(=O)(=O)NC1CCN(C(=O)CSc2c(Cl)cccc2Cl)CC1 [JO-02-31D] |
| ≤ 5 | ≤ 5 | ≤ 5 |  |  | C=CS(=O)(=O)NCCNC(=O)COc1ccc(Cl)cc1Cl [JO-02-36A] |
| ≤ 5 | ≤ 5 | ≤ 5 |  |  | C=CS(=O)(=O)NCCCNC(=O)COc1ccc(Cl)cc1Cl [JO-02-36B] |
| ≤ 5 | ≤ 5 | ≤ 5 |  |  | C=CC(=O)NCCNC(=O)COc1ccc(Cl)cc1Cl [JO-02-37A] |
| ≤ 5 | ≤ 5 | ≤ 5 |  |  | C=CC(=O)NCCCNC(=O)COc1ccc(Cl)cc1Cl [JO-02-37B] |
| ≤ 5 | ≤ 5 | ≤ 5 |  |  | C=CS(=O)(=O)Nc1cc(-c2cccs2)n[nH]1 [JO-02-38B] |
| ≤ 5 | ≤ 5 | ≤ 5 |  |  | C=CS(=O)(=O)NC1CCN(C(=O)c2cc3cc(Cl)ccc3[nH]2)CC1 [JO-02-49A] |
| ≤ 5 | ≤ 5 | ≤ 5 |  |  | C=CS(=O)(=O)NC1CCN(C(=O)c2cc3cc(F)ccc3[nH]2)CC1 [JO-02-49B] |
| ≤ 5 | ≤ 5 | ≤ 5 |  |  | C=CS(=O)(=O)NC1CCN(C(=O)c2cc3cc(OC)ccc3[nH]2)CC1 [JO-02-49C] |
| ≤ 5 | ≤ 5 | 5 to 20 |  |  | C=CS(=O)(=O)N1CCC(NC(=O)COc2ccc(Cl)cc2Cl)CC1 [JO-02-55] |
| ≤ 5 | ≤ 5 | 40 to 60 | ++++ (plate) (40% < ++++ <=60%) | ++++ (plate) (40% < ++++ <=60%) | C=CS(=O)(=O)NCC(=O)NC1CCN(C(=O)COc2ccc(Cl)cc2Cl)CC1 [JO-02-56A] |
| ≤ 5 | ≤ 5 | 5 to 20 |  |  | C=CS(=O)(=O)NCC(=O)N1CCC(NC(=O)COc2ccc(Cl)cc2Cl)CC1 [JO-02-56B] |
| ≤ 5 | ≤ 5 | ≤ 5 |  |  | O=C(NC1CCN(C(=O)COc2ccc(Cl)cc2Cl)CC1)C1CO1 (stereo not shown) [JO-02-72] |
| ≤ 5 | ≤ 5 | 20 to 40 |  |  | C=CS(=O)(=O)N1CC2CN(C(=O)COc3ccc(Cl)cc3Cl)CC2C1 (stereo not shown) [JO-02-74A] |
| ≤ 5 | ≤ 5 | 5 to 20 |  |  | C=CS(=O)(=O)N1CCC2(CCN(C(=O)COc3ccc(Cl)cc3Cl)C2)C1 (stereo not shown) [JO-02-74B] |
| ≤ 5 | ≤ 5 | 5 to 20 |  |  | C=CS(=O)(=O)N1CCC2(CN(C(=O)COc3ccc(Cl)cc3Cl)C2)C1 [JO-02-74C] |
| ≤ 5 | ≤ 5 | ≤ 5 |  |  | O=C(COc1ccc(Cl)cc1Cl)N1CCC(NCC2CO2)CC1 (stereo not shown) [JO-02-77A] |
| ≤ 5 | ≤ 5 | 5 to 20 |  |  | C=CS(=O)(=O)N1CCC2(CC1)CN(C(=O)COc1ccc(Cl)cc1Cl)C2 [JO-02-112A] |

| percent covalent labeling at 10 µM [1] [%] | percent covalent labeling at 10 µM [2] [%] | percent covalent labeling at 10 µM [3] [%] | Labeling % (10 micM) 24h | Labeling % (10 micM) 24h (Table 5) | Compound |
| --- | --- | --- | --- | --- | --- |
| ≤ 5 | ≤ 5 | 5 to 20 |  |  | C=CS(=O)(=O)C1CCC2(CC1)CCN(C(=O)COc1ccc(Cl)cc1Cl)C2 (stereo not shown) [JO-02-112B] |
| ≤ 5 | ≤ 5 | ≤ 5 |  |  | C=CS(=O)(=O)NCC1CCN(C(=O)COc2ccc(Cl)cc2Cl)CC1 [JO-02-112C] |
| ≤ 5 | ≤ 5 | 20 to 40 | +++ (plate) (20%< +++ <=40%) | +++ (plate) (20%< +++ <=40%) | C=CS(=O)(=O)N1CCN(C(=O)COc2ccc(Cl)cc2Cl)CC1 [JO-02-112D] |
| ≤ 5 | ≤ 5 | ≤ 5 |  |  | C=CS(=O)(=O)NC1CCN(C(=O)COc2ccc(Cl)cc2)CC1 [JO-02-115A] |
| ≤ 5 | ≤ 5 | ≤ 5 |  |  | C=CS(=O)(=O)NC1CCN(C(=O)C(C)Oc2ccc(Cl)cc2Cl)CC1 (stereo not shown) [JO-02-115B] |
| ≤ 5 | ≤ 5 | ≤ 5 |  |  | C=CS(=O)(=O)NC1CCN(C(=O)[C@@H](C)Oc2ccc(Cl)cc2Cl)CC1 [JO-02-115C] |
| ≤ 5 | ≤ 5 | 20 to 40 |  |  | C=CS(=O)(=O)NC1CCN(C(=O)COc2cc(Cl)c(Cl)cc2Cl)CC1 [JO-02-115D] |
| ≤ 5 | ≤ 5 | ≤ 5 |  |  | C=CS(=O)(=O)NC1CCN(C(=O)C(C)Oc2cc(Cl)c(Cl)cc2Cl)CC1 (stereo not shown) [JO-02-116A] |
| ≤ 5 | ≤ 5 | ≤ 5 |  |  | C=CS(=O)(=O)NC1CCN(C(=O)COc2nc(Cl)c(Cl)cc2Cl)CC1 [JO-02-116B] |
| ≤ 5 | ≤ 5 | 20 to 40 |  |  | C=CS(=O)(=O)NCC(=O)Nc1cc(-c2cccs2)n[nH]1 [JO-02-125] |
| ≤ 5 | ≤ 5 | ≤ 5 |  |  | C=CS(=O)(=O)NCC(=O)Nc1cc(-c2ccc(Cl)cc2)n[nH]1 [JO-02-139E] |
| ≤ 5 | 5 to 20 | > 60 |  |  | C=CS(=O)(=O)NC1CCN(C(=O)CNc2cc(Cl)c(Cl)cc2I)CC1 [JO-02-144] |
| ≤ 5 | ≤ 5 | 20 to 40 |  |  | O=C(NC1CCN(C(=O)CNc2cc(Cl)c(Cl)cc2I)CC1)C1CO1 (stereo not shown) [JO-02-152] |
| ≤ 5 | 5 to 20 | 40 to 60 |  |  | C=CC(=O)N1CCN(C(=O)CNc2cc(Cl)c(Cl)cc2I)CC1 [JO-02-155] |
| ≤ 5 | ≤ 5 | ≤ 5 |  |  | C=CC(=O)N1CC[C@@H](NC(=O)CNc2cc(Cl)c(Cl)cc2I)C1 [JO-02-157A (R)] |
| ≤ 5 | ≤ 5 | 5 to 20 |  |  | C=CC(=O)N1CC[C@H](NC(=O)CNc2cc(Cl)c(Cl)cc2I)C1 [JO-02-157B (S)] |
|  |  |  | + (plate) (+ <=5%) | + (plate) (+ <=5%) | C=CC(=O)N1CCN(C(=O)COc2ccc(Cl)cc2Cl)CC1 [JO-02-172] |
| ≤ 5 | ≤ 5 | ≤ 5 |  |  | N#CC1(NC(=O)C2CCN(C(=O)COc3ccc(Cl)cc3Cl)CC2)CC1 [Ras-001] |
| ≤ 5 | ≤ 5 | ≤ 5 |  |  | C=CC(=O)NC1CCN(C(=O)COc2c(Cl)cc(Cl)cc2Cl)CC1 [Ras-002] |
| ≤ 5 | ≤ 5 | ≤ 5 |  |  | C=CC(=O)NC1CCN(C(=O)Cn2cnc3ccccc32)CC1 [Ras-003] |
| ≤ 5 | ≤ 5 | ≤ 5 |  |  | C=CC(=O)NC1CCN(C(=O)Cn2ncc3ccccc32)CC1 [Ras-004] |
| ≤ 5 | ≤ 5 | ≤ 5 |  |  | C=CC(=O)NC1CCN(C(=O)CCn2cnc3ccccc32)CC1 [Ras-005] |
| ≤ 5 | ≤ 5 | ≤ 5 |  |  | C=CC(=O)NC1CCN(C(=O)CCn2ncc3ccccc32)CC1 [Ras-006] |
